Data as given in the supplement of paper PMC10307832.

Columns and labels:
Experiment in all cases: relative viability (nuclei count vs DMSO), 5 days (fraction); higher = more cells survive
[1] = system: NCI-H647
Outline: (§1)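 Medians of duplicate plates are given as relative viability. That measure is the nuclei count in treated wells divided by the count in vehicle wells. Counts were taken on 4× images of lung cancer cell lines in 1536-well plates, 5 days after pin-tool dosing the day after seeding with one drug alone or a fixed anchor-drug dose plus five library-drug doses (not always all listed) in √10 steps.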

[2] = system: LCLC-103H
Outline: as §1

[3] = system: NCI-H661
Outline: as §1

[4] = system: NCI-H1651
Outline: as §1

[5] = system: EMC-BAC-2
Outline: as §1

[6] = system: NCI-H1734
Outline: as §1

[7] = system: 201T
Outline: as §1

[8] = system: EPLC-272H
Outline: as §1

[9] = system: LOU-NH91
Outline: as §1

[10] = system: NCI-H23
Outline: as §1

[11] = system: SK-LU-1
Outline: as §1

[12] = system: NCI-H1437
Outline: as §1

[13] = system: NCI-H2023
Outline: as §1

[14] = system: ABC-1
Outline: as §1

[15] = system: NCI-H2405
Outline: as §1

[16] = system: NCI-H1395
Outline: as §1

[17] = system: NCI-H1975
Outline: as §1

[18] = system: NCI-H1793
Outline: as §1

[19] = system: NCI-H1915
Outline: as §1

[20] = system: RERF-LC-KJ
Outline: as §1

[21] = system: UMC-11
Outline: as §1

[22] = system: NCI-H1792
Outline: as §1

O=c1[nH]c2ccccc2n1C1CCN(CCCC(c2ccc(F)cc2)c2ccc(F)cc2)CC1 [Pimozide] + CCNC(=O)c1noc(-c2cc(C(C)C)c(O)cc2O)c1-c1ccc(CN2CCOCC2)cc1 [Luminespib] (partner 0.01 µM)
relative viability ([1]; first compound 0.08 µM): 0.095 | relative viability ([1]; first compound 0.253 µM): 0.0882 | relative viability ([1]; first compound 0.8 µM): 0.196 | relative viability ([1]; first compound 2.53 µM): 0.096 | relative viability ([1]; first compound 8 µM): 0.109 | relative viability ([2]; first compound 0.08 µM): 0.942 | relative viability ([2]; first compound 0.253 µM): 1.01 | relative viability ([2]; first compound 0.8 µM): 0.762 | relative viability ([2]; first compound 2.53 µM): 0.899 | relative viability ([2]; first compound 8 µM): 0.948 | relative viability ([3]; first compound 0.08 µM): 0.929 | relative viability ([3]; first compound 0.253 µM): 0.879 | relative viability ([3]; first compound 0.8 µM): 0.887 | relative viability ([3]; first compound 2.53 µM): 0.878 | relative viability ([3]; first compound 8 µM): 0.896 | relative viability ([4]; first compound 0.08 µM): 0.91 | relative viability ([4]; first compound 0.253 µM): 0.756 | relative viability ([4]; first compound 0.8 µM): 0.696 | relative viability ([4]; first compound 2.53 µM): 0.867 | relative viability ([4]; first compound 8 µM): 0.807 | relative viability ([5]; first compound 0.08 µM): 1.13 | relative viability ([5]; first compound 0.253 µM): 1.1 | relative viability ([5]; first compound 0.8 µM): 1.18 | relative viability ([5]; first compound 2.53 µM): 1.18 | relative viability ([5]; first compound 8 µM): 1.16 | relative viability ([6]; first compound 0.08 µM): 0.168 | relative viability ([6]; first compound 0.253 µM): 0.17 | relative viability ([6]; first compound 2.53 µM): 0.154 | relative viability ([6]; first compound 8 µM): 0.374 | relative viability ([7]; first compound 0.08 µM): 1.05 | relative viability ([7]; first compound 0.253 µM): 1.02 | relative viability ([7]; first compound 0.8 µM): 0.971 | relative viability ([7]; first compound 2.53 µM): 0.961 | relative viability ([7]; first compound 8 µM): 0.912 | relative viability ([8]; first compound 0.08 µM): 0.622 | relative viability ([8]; first compound 0.253 µM): 0.557 | relative viability ([8]; first compound 0.8 µM): 0.185 | relative viability ([8]; first compound 2.53 µM): 0.244 | relative viability ([8]; first compound 8 µM): 0.206 | relative viability ([9]; first compound 0.08 µM): 0.377 | relative viability ([9]; first compound 0.253 µM): 0.345 | relative viability ([9]; first compound 0.8 µM): 0.399 | relative viability ([9]; first compound 2.53 µM): 0.359 | relative viability ([9]; first compound 8 µM): 0.313 | relative viability ([10]; first compound 0.08 µM): 0.236 | relative viability ([10]; first compound 0.8 µM): 0.241 | relative viability ([10]; first compound 2.53 µM): 0.195 | relative viability ([10]; first compound 8 µM): 0.218 | relative viability ([11]; first compound 0.08 µM): 0.219 | relative viability ([11]; first compound 0.253 µM): 0.197 | relative viability ([11]; first compound 0.8 µM): 0.206 | relative viability ([11]; first compound 2.53 µM): 0.183 | relative viability ([11]; first compound 8 µM): 0.206 | relative viability ([12]; first compound 0.08 µM): 1.13 | relative viability ([12]; first compound 0.253 µM): 1.09 | relative viability ([12]; first compound 0.8 µM): 1.12 | relative viability ([12]; first compound 2.53 µM): 0.988 | relative viability ([12]; first compound 8 µM): 0.922 | relative viability ([13]; first compound 0.08 µM): 0.755 | relative viability ([13]; first compound 0.253 µM): 0.707 | relative viability ([13]; first compound 0.8 µM): 0.709 | relative viability ([13]; first compound 2.53 µM): 0.507 | relative viability ([13]; first compound 8 µM): 0.596 | relative viability ([14]; first compound 0.08 µM): 0.75 | relative viability ([14]; first compound 0.253 µM): 0.519 | relative viability ([14]; first compound 0.8 µM): 0.367 | relative viability ([14]; first compound 2.53 µM): 0.675 | relative viability ([14]; first compound 8 µM): 0.433 | relative viability ([15]; first compound 0.08 µM): 0.654 | relative viability ([15]; first compound 0.253 µM): 0.717 | relative viability ([15]; first compound 0.8 µM): 0.618 | relative viability ([15]; first compound 2.53 µM): 0.559 | relative viability ([15]; first compound 8 µM): 0.315 | relative viability ([16]; first compound 0.08 µM): 0.846 | relative viability ([16]; first compound 0.253 µM): 0.595 | relative viability ([16]; first compound 0.8 µM): 0.704 | relative viability ([16]; first compound 2.53 µM): 0.927 | relative viability ([16]; first compound 8 µM): 0.683 | relative viability ([17]; first compound 0.08 µM): 0.213 | relative viability ([17]; first compound 0.253 µM): 0.337 | relative viability ([17]; first compound 0.8 µM): 0.384 | relative viability ([17]; first compound 2.53 µM): 0.239 | relative viability ([17]; first compound 8 µM): 0.18 | relative viability ([18]; first compound 0.253 µM): 0.166 | relative viability ([18]; first compound 0.8 µM): 0.207 | relative viability ([18]; first compound 2.53 µM): 0.169 | relative viability ([18]; first compound 8 µM): 0.149 | relative viability ([19]; first compound 0.08 µM): 0.807 | relative viability ([19]; first compound 0.253 µM): 0.8 | relative viability ([19]; first compound 0.8 µM): 0.714 | relative viability ([19]; first compound 2.53 µM): 0.666 | relative viability ([19]; first compound 8 µM): 0.782 | relative viability ([20]; first compound 0.08 µM): 1.09 | relative viability ([20]; first compound 0.253 µM): 1.14 | relative viability ([20]; first compound 0.8 µM): 1.08 | relative viability ([20]; first compound 2.53 µM): 1.12 | relative viability ([20]; first compound 8 µM): 0.964 | relative viability ([21]; first compound 0.08 µM): 1.2 | relative viability ([21]; first compound 0.253 µM): 1.03 | relative viability ([21]; first compound 0.8 µM): 0.976 | relative viability ([21]; first compound 2.53 µM): 1.11 | relative viability ([21]; first compound 8 µM): 1.18 | relative viability ([22]; first compound 0.08 µM): 0.525 | relative viability ([22]; first compound 0.253 µM): 0.424 | relative viability ([22]; first compound 0.8 µM): 0.403 | relative viability ([22]; first compound 2.53 µM): 0.477 | relative viability ([22]; first compound 8 µM): 0.498
